In PMC7589326, “Synthesis and Pharmacological Evaluation of Fluorinated Quinoxaline‐Based κ‐Opioid Receptor (KOR) Agonists Designed for PET Studies” (Chemmedchem, 2020):
Read-outs that look alike come from different tables or passages of the source.

Experiments:
[1] = molecular target: T1, KOR (Cavia porcellus, UniProt P41144); assay: biochemical; assay type: binding, guinea pig
T1 construct: The thawed guinea pig brain membrane preparation (about 100 μg of the protein) was incubated; tissue Harlan-Winkelmann, Borchen, Germany; host or cells: guinea pig brain membrane homogenate
T1 sequence (P41144 whole entry): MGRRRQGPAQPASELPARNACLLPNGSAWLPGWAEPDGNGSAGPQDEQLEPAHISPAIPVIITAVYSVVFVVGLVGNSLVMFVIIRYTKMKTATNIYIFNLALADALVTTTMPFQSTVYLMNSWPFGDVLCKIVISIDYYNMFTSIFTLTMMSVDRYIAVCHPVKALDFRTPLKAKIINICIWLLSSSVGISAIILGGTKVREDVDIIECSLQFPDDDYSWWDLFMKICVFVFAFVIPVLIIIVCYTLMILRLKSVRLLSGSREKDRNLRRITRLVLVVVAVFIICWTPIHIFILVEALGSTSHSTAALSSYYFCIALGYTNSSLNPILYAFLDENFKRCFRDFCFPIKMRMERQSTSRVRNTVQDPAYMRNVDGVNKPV

[2] = molecular target: T2, MOR (Cavia porcellus, UniProt A0ACM8Q262); assay: biochemical; assay type: binding, guinea pig; conditions: for inhibition at 1 µM: read-out: % inhibition at 1 μM MOR [3H]DAMGO
T2 sequence (A0ACM8Q262 1-400): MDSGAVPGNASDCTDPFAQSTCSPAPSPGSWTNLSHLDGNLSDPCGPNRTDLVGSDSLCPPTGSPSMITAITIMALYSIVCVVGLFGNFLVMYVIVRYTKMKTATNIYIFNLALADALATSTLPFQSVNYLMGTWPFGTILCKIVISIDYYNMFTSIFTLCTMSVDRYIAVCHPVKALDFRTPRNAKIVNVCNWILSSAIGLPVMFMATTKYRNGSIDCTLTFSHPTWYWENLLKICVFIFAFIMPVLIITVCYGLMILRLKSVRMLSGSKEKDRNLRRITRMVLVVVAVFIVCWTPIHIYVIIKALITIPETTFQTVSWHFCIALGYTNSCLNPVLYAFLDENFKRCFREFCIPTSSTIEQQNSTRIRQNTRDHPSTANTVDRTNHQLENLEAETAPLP

[3] = molecular target: T3, DOR (Rattus norvegicus, UniProt P33533); assay: biochemical; assay type: binding; conditions: for inhibition at 1 µM: read-out: % inhibition at 1 μM DOR [3H]DPDPE
T3 construct: preparations from rat brain were employed in the DOR assay; tissue Harlan-Winkelmann, Borchen, Germany; host or cells: rat brain (Sprague Dawley) membrane homogenate
T3 sequence (P33533 whole entry): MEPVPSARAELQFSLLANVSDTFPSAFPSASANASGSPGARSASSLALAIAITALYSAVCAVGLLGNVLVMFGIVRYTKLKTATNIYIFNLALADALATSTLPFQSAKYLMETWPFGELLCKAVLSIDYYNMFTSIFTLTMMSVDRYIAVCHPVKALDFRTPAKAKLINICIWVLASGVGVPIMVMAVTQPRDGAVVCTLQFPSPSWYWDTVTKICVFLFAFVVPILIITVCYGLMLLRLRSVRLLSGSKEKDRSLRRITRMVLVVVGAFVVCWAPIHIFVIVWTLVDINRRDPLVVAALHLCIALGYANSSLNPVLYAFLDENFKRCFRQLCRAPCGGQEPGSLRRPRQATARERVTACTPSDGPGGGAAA

[4] = molecular target: T4, σ1 receptor (Cavia porcellus, UniProt Q60492); assay: biochemical; assay type: binding, guinea pig; conditions: read-out: % inhibition at 1 μM σ1 (+)-[3H]pentazocine
T4 construct: Membrane preparations from guinea pig brain were used in the MOR and σ1 assay; tissue Harlan-Winkelmann, Borchen, Germany; host or cells: guinea pig brain membrane homogenate
T4 sequence (Q60492 whole entry): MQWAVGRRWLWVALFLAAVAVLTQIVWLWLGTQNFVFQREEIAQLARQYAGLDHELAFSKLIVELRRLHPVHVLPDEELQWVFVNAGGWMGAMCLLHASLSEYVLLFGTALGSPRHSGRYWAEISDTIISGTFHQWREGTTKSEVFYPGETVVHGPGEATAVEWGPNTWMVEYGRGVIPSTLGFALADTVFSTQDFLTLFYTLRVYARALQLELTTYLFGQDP

[5] = molecular target: T5, σ2 receptor (Rattus norvegicus, UniProt Q5U3Y7); assay: biochemical; assay type: binding; conditions: for inhibition at 1 µM: read-out: % inhibition at 1 μM σ2 [3H]DTG
T5 construct: tissue Harlan-Winkelmann, Borchen, Germany; host or cells: rat liver membrane homogenate
T5 sequence (Q5U3Y7 1-176): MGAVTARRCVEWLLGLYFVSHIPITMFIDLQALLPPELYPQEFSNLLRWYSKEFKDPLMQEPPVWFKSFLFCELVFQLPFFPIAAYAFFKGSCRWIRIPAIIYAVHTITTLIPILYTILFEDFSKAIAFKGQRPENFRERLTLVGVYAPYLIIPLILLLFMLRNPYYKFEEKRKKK

[6] = system: mouse DCs (wild-type); assay type: cell-based
[7] = system: DCs from KOR-deficient mice; assay type: cell-based, mouse
[8] = system: human DCs; assay type: cell-based
[9] = system: mouse T cells (wild-type); assay type: cell-based
[10] = molecular target: T6, KOR (Homo sapiens, UniProt P41145); assay: cell-based; set-up: expressed in transfected cells; host or cells: HEK 293T (ATCC CRL-11268)
Target sequence in this assay (P41145 whole entry, the tested form may be a part): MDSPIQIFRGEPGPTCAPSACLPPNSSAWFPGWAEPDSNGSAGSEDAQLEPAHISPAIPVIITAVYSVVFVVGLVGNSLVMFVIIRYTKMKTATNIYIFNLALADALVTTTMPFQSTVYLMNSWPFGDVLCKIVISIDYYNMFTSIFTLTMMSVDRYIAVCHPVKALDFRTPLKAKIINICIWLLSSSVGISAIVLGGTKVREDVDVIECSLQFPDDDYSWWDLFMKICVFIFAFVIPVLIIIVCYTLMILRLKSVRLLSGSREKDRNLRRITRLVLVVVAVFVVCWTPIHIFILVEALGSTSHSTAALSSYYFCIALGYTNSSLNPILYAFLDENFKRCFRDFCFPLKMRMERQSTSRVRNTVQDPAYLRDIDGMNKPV

[11] = molecular target: T6, KOR; assay: cell-based; set-up: expressed in transfected cells; host or cells: HTLA cells (stably expressing TEV-fused β-arrestin2)
Target sequence in this assay (P41145 whole entry, the tested form may be a part): as above
Target sequence in this assay (P32121 whole entry partner, the tested form may be a part): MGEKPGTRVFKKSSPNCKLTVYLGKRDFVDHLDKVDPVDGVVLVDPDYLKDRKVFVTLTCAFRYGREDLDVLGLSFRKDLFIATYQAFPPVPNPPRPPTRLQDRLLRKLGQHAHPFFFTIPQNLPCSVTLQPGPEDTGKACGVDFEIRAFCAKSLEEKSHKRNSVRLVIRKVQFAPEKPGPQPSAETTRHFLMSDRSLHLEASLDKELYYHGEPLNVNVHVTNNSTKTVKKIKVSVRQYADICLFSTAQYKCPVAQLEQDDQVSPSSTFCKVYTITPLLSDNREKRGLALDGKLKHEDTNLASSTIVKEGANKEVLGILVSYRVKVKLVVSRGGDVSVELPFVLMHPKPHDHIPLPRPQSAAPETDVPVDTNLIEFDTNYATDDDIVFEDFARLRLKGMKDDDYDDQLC

[12] = Distribution coefficient logD7.4, shake flask method with radioligand; assay type: physicochemical
Procedure: The distribution coefficient at pH 7.4 (logD7.4) was determined by a shake flask method using the radioligand [^18F]‐2. After distribution of [^18F]‐2 between n‐octanol and phosphate buffered saline (pH 7.4) layers, the radioactivity in both layers was determined and set in ratio. According to this procedure, a logD7.4 value of 1.37±0.06 was determined indicating a moderate lipophilic compound, which should be able to penetrate into the central nervous system.
The lipophilicity of radioligands [^18F]‐2 and [^18F]‐14c was assessed by determination of the water n‐octan‐1‐ol distribution coefficient (logD) following a published procedure.57 In brief, approximately 3.2 MBq of radioligand [^18F]‐2 and approximately 0.3 MBq of radiotracer [^18F]‐14c, respectively, were mixed with equal amounts (0.6 mL) of phosphate buffered saline (PBS, pH 7.4) and n‐octan‐1‐ol. The resulting biphasic system was mixed vigorously for 3 min at room temperature and subsequently, the tubes were centrifuged (≥5 min). Then 400 μL of the n‐octan‐1‐ol layer was separated and 400 μL of PBS were added. The mixture was mixed vigorously for 10 min at room temperature followed by centrifugation of the tubes for≥5 min. Two samples of 100 μL of each layer were counted in a γ‐counter (2480 Automatic Gamma Counter Wizard^2, Perkin‐Elmer). The distribution coefficient was determined by calculating the ratio cpm(n‐octan‐1‐ol)/cpm(PBS) and expressed as logD 7.4 (log(cpmn‐octanol/cpmPBS)). Three independent experiments were performed in duplicate and data were provided as mean values ±standard deviation.

[13] = Stability in mouse serum (radio-HPLC); assay type: in vitro ADME; conditions: 90 min, 37 °C
Procedure: (§1) Enzymes present in blood serum could be able to transform the radioactive PET tracer [^18F]‐2. Therefore, the blood serum stability of [^18F]‐2 was investigated before testing the tracer in vivo. [^18F]‐2 was incubated with mouse and human serum for 90 min at 37 °C.
(§2) The serum stability of radioligands [^18F]‐2 and [^18F]‐14c was evaluated by incubation in mouse or human serum at 37 °C for up to 90 min. An aliquot of formulated [^18F]‐2 or [^18F]‐14c (20 μL, ca. 6.6 MBq and ca.10 MBq, respectively) was added to a sample of mouse serum (200 μL) or human serum (200 μL), and the mixtures were incubated at 37 °C. Samples of 20 μL each were taken after periods of 10, 30, 60 and 90 min and ice‐cold DNA‐grade CH3CN (100 μL) were added. After centrifugation for ≥5 min, the supernatant was analyzed by analytical radio‐HPLC B, method B.

[14] = Stability in human serum (radio-HPLC); assay type: in vitro ADME; conditions: 90 min, 37 °C
Procedure: as §1, §2

[15] = In vivo biodistribution, small animal PET in C57BL/6 mice; set-up: species or system mouse
Procedure: Next, the distribution of the PET tracer [^18F]‐2 in mice was investigated. For this purpose, [^18F]‐2 was injected into 15‐week‐old C57BL/6 mice. […] Already after 2 min the radioactivity was almost completely found in liver, kidneys and bladder. In the liver, the radioactivity remained almost constant over the period of 90 min (Figure 6). Besides a transient local increase in radioactivity in the submandibular and harderian glands, no significant accumulation of [^18F]‐2 in non‐excreting organs such as heart, lung and muscles as indicator for unspecific binding could be detected.
Adult C57BL/6 mice (n=2 male, 15 weeks, 28 g for [^18F]‐2; n=2, male, 10 weeks, 25 g for [^18F]‐14c) were anesthetized by isoflurane/O2 and one lateral tail vein was cannulated BY using a 27 G needle connected to 15 cm polyethylene catheter tubing. Radiotracers (∼500 kBq/g bodyweight, 15 MBq) were injected as a bolus (50 μL compound flushed with 100 μL saline) via the tail vein and subsequent PET scanning was performed.
Small Animal PET Scanning. PET experiments were carried out using a submillimeter high resolution (0.7 mm full width at half‐maximum) small animal scanner (32 module quadHIDAC, Oxford Positron Systems Ltd., Oxford, UK) with uniform spatial resolution (<1 mm) over a large cylindrical field (165 mm diameter, 280 mm axial length). List‐mode data were acquired for 90 min and reconstructed into dynamic time frames using an iterative reconstruction algorithm. Subsequently, the scanning bed was transferred to the computed tomography (CT) scanner (Inveon, Siemens Medical Solutions, U.S.), and a CT acquisition with a spatial resolution of 80 μm was performed for each mouse. Reconstructed image data sets were coregistered based on extrinsic markers attached to the multimodal scanning bed and the in‐house developed image analysis software MEDgical. Three‐dimensional volumes of interest (VOIs) were defined over the respective organs in CT data sets, transferred to the coregistered PET data, and analyzed quantitatively. Regional uptake was calculated as percentage of injected dose by dividing counts per milliliter in the VOI by total counts in the mouse multiplied by 100 (%ID/mL).

[16] = molecular target: T2, MOR; conditions: cited from earlier work
[17] = molecular target: T4, σ1 receptor; conditions: cited from earlier work
[18] = molecular target: T5, σ2 receptor; conditions: cited from earlier work
[19] = system: T cells from KOR-deficient mice; assay type: cell-based, mouse
[20] = system: human T cells; assay type: cell-based

COC(=O)N1CCN(C(=O)Cc2ccc(Cl)c(Cl)c2)[C@@H]2[C@@H](N3CC[C@H](O)C3)CCC[C@@H]21 (mixture of isomers) [12c, Methyl (4aR,5S,8aS)‐ and (4aS,5R,8aR)‐4‐[2‐(3,4‐dichlorophenyl)acetyl]‐5‐[(S)‐3‐hydroxypyrrolidin‐1‐yl]‐3,4,4 a,5,6,7,8,8 a‐octahydroquinoxaline‐1(2H)‐carboxylate]
Ki ([1]; Ki±SEM KOR [3H]U-69,593): 9.2 ± 6 nM
inhibition at 1 µM [2]: 5%
Ki [3]: 693 nM
inhibition at 1 µM [4]: 0%
inhibition at 1 µM [5]: 5%
expression of maturation marker CD11c and IFN-γ production [6]: significantly reduced
anti-inflammatory effect (CD11c, IFN-γ) in DCs from KOR-deficient mice [7]: completely abrogated
expression of CD11c and production of IFN-γ in human DCs [8]: reduced
expression of surface activation markers CD25, CD44 and CD69 and IFN-γ production [9]: did not modulate the activation status
EC50 [10]: 0.19 nM
Emax ([10]; HEK-293T, read-out: cAMP E max): 100%
EC50 [11]: 8.8 nM
Emax ([11]; HTLA, read-out: β-Arrestin-2 E max): 82%

CC(C)(C)OC(=O)N1CCN(C(=O)Cc2ccc(Cl)c(Cl)c2)[C@@H]2[C@@H](N3CC[C@H](O)C3)CCC[C@@H]21 (mixture of isomers) [12a, tert‐Butyl (4aR,5S,8aS)‐ and (4aS,5R,8aR)‐4‐[2‐(3,4‐dichlorophenyl)acetyl]‐5‐[(S)‐3‐hydroxypyrrolidin‐1‐yl]‐3,4,4 a,5,6,7,8,8 a‐octahydroquinoxaline‐1(2H)‐carboxylate]
Ki ([1]; Ki±SEM KOR [3H]U-69,593): 16 ± 2 nM
inhibition at 1 µM [2]: 9%
inhibition at 1 µM [3]: 5%
inhibition at 1 µM [4]: 0%
inhibition at 1 µM [5]: 0%

COC(=O)N1CCN(C(=O)Cc2ccc(Cl)c(Cl)c2)[C@@H]2[C@@H](N3CC[C@@H]([18F])C3)CCC[C@@H]21 [[^18F]‐14c, Methyl (4aR,5S,8aS)‐ and (4aS,5R,8aR)‐4‐[2‐(3,4‐dichlorophenyl)acetyl]‐5‐[(R)‐3‐[^18F]fluoropyrrolidin‐1‐yl]‐3,4,4 a,5,6,7,8,8 a‐octahydroquinoxaline‐1(2H)‐carboxylate]
concentration in the n-octanol layer relative to [18F]-2 ([12]; n-octanol / PBS pH 7.4): 15 fold
logD ([12]; n-octanol / phosphate buffered saline pH 7.4): 2.54 ± 0.22
stability in mouse serum [13]: high stability
stability in human serum [14]: high stability
residual radioactivity in organs ex vivo (γ-counter) ([15]; 90 min after injection): mainly present in the excretion organs and in the urine
radioactivity in the bones / defluorination ([15]; C57BL/6 mice, intravenous injection): fast defluorination
clearance from the body ([15]; C57BL/6 mice, intravenous injection, hepatic and renal pathways): fast

COC(=O)N1CCN(C(=O)Cc2ccc(Cl)c(Cl)c2)[C@@H]2[C@@H](N3CCCC3)CCC[C@@H]21 [1c]
% inhibition at 1 μM MOR [3H]DAMGO [16]: 0%
% inhibition at 1 μM σ1 (+)-[3H]pentazocine [17]: 0%
% inhibition at 1 μM σ2 [3H]DTG [18]: 8%

CC(C)(C)OC(=O)N1CCN(C(=O)Cc2ccc(Cl)c(Cl)c2)[C@@H]2[C@@H](N3CCCC3)CCC[C@@H]21 [1a]
Ki ([16]; read-out: Ki MOR [3H]DAMGO): 260 nM
% inhibition at 1 μM σ1 (+)-[3H]pentazocine [17]: 12%
% inhibition at 1 μM σ2 [3H]DTG [18]: 16%

DAMGO [reference compound]
Kd ([2]; read-out: Kd-value of radioligand, MOR assay): 0.57 nM

COC(=O)N1CCN(C(=O)Cc2ccc(Cl)c(Cl)c2)[C@@H]2[C@@H](N3CC[C@@H](F)C3)CCC[C@@H]21 (mixture of isomers) [14c, Methyl (4aR,5S,8aS)‐ and (4aS,5R,8aR)‐4‐[2‐(3,4‐dichlorophenyl)acetyl]‐5‐[(R)‐3‐fluoropyrrolidin‐1‐yl]‐3,4,4 a,5,6,7,8,8 a‐ octahydroquinoxaline‐1(2H)‐carboxylate]
Ki [1]: 0.82 ± 0.69 nM
selectivity over the related MOR, DOR and σ receptors [1]: more than 1000 fold
inhibition at 1 µM [2]: 0%
inhibition at 1 µM [3]: 12%
inhibition at 1 µM [4]: 8%
Ki [5]: 962 nM
expression of maturation marker CD11c and IFN-γ production [6]: significantly reduced
anti-inflammatory effect (CD11c, IFN-γ) in DCs from KOR-deficient mice [7]: completely abrogated
expression of CD11c and production of IFN-γ in human DCs [8]: reduced
anti-inflammatory cytokine IL-10 in cell cultures [9]: significant upregulation
expression of surface activation markers CD25, CD44 and CD69 and IFN-γ production [9]: significantly reducing
expression of activation markers or cytokine release in T cells from KOR-deficient mice [19]: did not result in an altered expression
IL-10 induction [20]: only slightly but not significantly induced
expression of surface activation markers CD25 and CD69 and IFN-γ secretion [20]: significantly reduce
